Reference: patent US12234230B2, “Substituted benzyl-triazole compounds for Cbl-b inhibition, and further uses thereof” (Nurix Therapeutics, Inc., priority 2019, dated 2025)

What was measured:
Cbl-b = Cbl-b (Homo sapiens (Human), UniProt Q13191); assay: Cbl-b displacement assay (Cbl-b inhibition assay), Biological Example 1; format: binding; conditions: 0.125 nM Cbl-b final concentration (Low); read-out: Cbl-b activity IC50 (Low)
Protocol: The ability of candidate compounds to displace a known inhibitor and thereby inhibit Cbl-b activity was measured by monitoring the interaction of Cbl-b with a fluorophore-labeled probe in the presence of the candidate compound.
Following the one hour incubation, the plates were read for TR-FRET signal at 520/620 nm using an Envision plate reader (Perkin Elmer).

[1] = test system: primary human total T-cells; assay: Primary human total T-cell activation (IL-2 secretion, CD25 surface staining), Biological Example 2; conditions: fold change over baseline; for CD25 staining CD3/CD28 0.3 μM / IL-2 secretion CD3/CD28 0.3 μM: 0.3 μM inhibitor; for CD25 staining CD3/CD28 0.3 μM / IL-2 secretion CD3/CD28 0.3 μM / CD25 staining CD3/CD28 1 μM / IL-2 secretion CD3/CD28 1 μM: anti-CD3 and anti-CD28 co-stimulation; for CD25 staining CD3/CD28 1 μM / IL-2 secretion CD3/CD28 1 μM / CD25 staining CD3 1 μM / IL-2 secretion CD3 1 μM: 1 μM inhibitor; for CD25 staining CD3 1 μM / IL-2 secretion CD3 1 μM / CD25 staining CD3 3 μM / IL-2 secretion CD3 3 μM: anti-CD3 stimulation alone; for CD25 staining CD3 3 μM / IL-2 secretion CD3 3 μM: 3 μM inhibitor
Protocol: Peripheral blood mononuclear cells (PBMC) were obtained either: 1) by using Ficoll-Paque™ (GE Healthcare) for separation of peripheral blood hematopoietic cells from buffy coats of healthy human donors; or 2) directly from LeukoPak donations. […] The cells were rested overnight at 37° C. 5% CO2. The Cbl-inhibitor was added to 1×10^5 cells per well and the plate was incubated for one hour at 37° C. in 5% CO2 at the concentrations indicated (Table 3) with a final DMSO concentration of <0.1%. For samples stimulated with anti-CD3 antibody and anti-CD28 antibody (anti-CD3/anti-CD28), the Cbl-b inhibitor concentrations tested were 1 μM, and 0.3 μM. For samples stimulated with anti-CD3 antibody alone (anti-CD3), the Cbl-b inhibitor concentrations tested were 3 μM, and 1 μM. […] To prepare plates with plate bound anti-CD3 antibody (OKT3), 96-well round bottom tissue culture plates were coated with 100 μL of anti-CD3 antibody (OKT3) at 10 μg/mL for 4 hours at 37° C. 5% CO2 in phosphate buffered saline (PBS). […] Cells were stimulated for 48 hours prior to harvesting the cell free supernatant and staining the cell population for surface marker assessment by flow cytometry. Supernatants were analyzed for cytokine secretion, including IL-2 by ELISA (R&D Systems, Peprotech or Life Technologies) or Luminex multiplex kits (Procarta Life Technologies) following the manufacturer's protocol. Cells were stained with anti-CD25 antibody (BD Biosciences) to assess levels of surface marker of activation.
Readouts were reported as fold change over baseline. Baseline for this study was the measurement obtained from total human T-cells stimulated with anti-CD3 antibody and with soluble anti-CD28 antibody, wherein the cells were not incubated with a Cbl-b inhibitor (Table 3).

Sequence of Cbl-b (Q13191 36-427): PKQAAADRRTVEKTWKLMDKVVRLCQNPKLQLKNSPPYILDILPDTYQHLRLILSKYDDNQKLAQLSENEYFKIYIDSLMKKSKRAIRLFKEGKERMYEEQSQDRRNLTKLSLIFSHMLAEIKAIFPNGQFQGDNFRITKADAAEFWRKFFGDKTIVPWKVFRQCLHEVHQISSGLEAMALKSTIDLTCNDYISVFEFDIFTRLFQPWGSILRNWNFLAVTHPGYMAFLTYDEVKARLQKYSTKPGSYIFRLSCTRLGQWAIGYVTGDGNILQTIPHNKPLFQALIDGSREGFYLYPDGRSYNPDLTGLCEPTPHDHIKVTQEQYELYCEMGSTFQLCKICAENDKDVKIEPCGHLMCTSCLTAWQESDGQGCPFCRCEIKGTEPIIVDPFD

SMILES | IC50 (Cbl-b) [nM] | CD25 staining CD3/CD28 0.3 μM [1] | IL-2 secretion CD3/CD28 0.3 μM [1] | CD25 staining CD3/CD28 1 μM [1] | IL-2 secretion CD3/CD28 1 μM [1] | CD25 staining CD3 1 μM [1] | IL-2 secretion CD3 1 μM [1] | CD25 staining CD3 3 μM [1] | IL-2 secretion CD3 3 μM [1]
C[C@H]1CCCN(Cc2cc3c(c(C(F)(F)F)c2)CN(c2cccc([C@]4(c5nncn5C)C[C@H](C#N)C4)c2)C3=O)C1 [Compound 39, (1S,3r)-3-(4-methyl-4H-1,2,4-triazol-3-yl)-3-(3-(6-(((S)-3-methylpiperidin-1-yl)methyl)-1-oxo-4-(trifluoromethyl)isoindolin-2-yl)phenyl)cyclobutane-1-carbonitrile] | < 5 | B (B indicates 1.24-1.39 fold) | A (A indicates >35 fold) | B (B indicates 1.24-1.39 fold) | A (A indicates >35 fold) | A (A indicates >2.5 fold) | A (A indicates >1.1 fold) | A (A indicates >2.5 fold) | A (A indicates >1.1 fold)
C[C@@H]1CN(Cc2cc3c(c(C(F)(F)F)c2)CN(c2cccc([C@]4(c5nncn5C)C[C@@H](CC#N)C4)c2)C3=O)CCC1(F)F [Compound 49, 2-((1S,3s)-3-(3-(6-(((R)-4,4-difluoro-3-methylpiperidin-1-yl)methyl)-1-oxo-4-(trifluoromethyl)isoindolin-2-yl)phenyl)-3-(4-methyl-4H-1,2,4-triazol-3-yl)cyclobutyl)acetonitrile] | < 5 | B (B indicates 1.24-1.39 fold) | A (A indicates >35 fold) | B (B indicates 1.24-1.39 fold) | A (A indicates >35 fold) | A (A indicates >2.5 fold) | A (A indicates >1.1 fold) | A (A indicates >2.5 fold) | A (A indicates >1.1 fold)
C[C@@H]1CN(Cc2cc3c(c(C(F)(F)F)c2)CN(c2cccc(C4(c5nncn5C)CC5(CC5)C4)c2)C3=O)CCC1(F)F [Compound 41, 6-[[(3R)-4,4-difluoro-3-methyl-1-piperidyl]methyl]-2-[3-[5-(4-methyl-1,2,4-triazol-3-yl)spiro[2.3]hexan-5-yl]phenyl]-4-(trifluoromethyl)isoindolin-1-one] | < 5 |  | B (B indicates 20-35 fold) |  | A (A indicates >35 fold) | A (A indicates >2.5 fold) | A (A indicates >1.1 fold) | A (A indicates >2.5 fold) | A (A indicates >1.1 fold)
C[C@@H]1CN(Cc2cc3c(c(C4CC4)n2)CN(c2cccc([C@]4(c5nncn5C)C[C@@H](C)C4)c2)C3=O)CCC1(F)F [Compound 26, 4-cyclopropyl-6-(((R)-4,4-difluoro-3-methylpiperidin-1-yl)methyl)-2-(3-((1s,3S)-3-methyl-1-(4-methyl-4H-1,2,4-triazol-3-yl)cyclobutyl)phenyl)-2,3-dihydro-1H-pyrrolo[3,4-c]pyridin-1-one] | 5 to 20 | B (B indicates 1.24-1.39 fold) | C (C indicates <20 fold) |  | B (B indicates 20-35 fold) | A (A indicates >2.5 fold) | A (A indicates >1.1 fold) | A (A indicates >2.5 fold) | A (A indicates >1.1 fold)
C[C@@H]1CN(Cc2cc3c(c(C(F)(F)F)c2)CN(c2cccc([C@]4(c5nncn5C)C[C@H](C#N)C4)c2)C3=O)CCC1(F)F [Compound 40, (1R,3r)-3-(3-(6-(((R)-4,4-difluoro-3-methylpiperidin-1-yl)methyl)-1-oxo-4-(trifluoromethyl)isoindolin-2-yl)phenyl)-3-(4-methyl-4H-1,2,4-triazol-3-yl)cyclobutane-1-carbonitrile] | < 5 |  | B (B indicates 20-35 fold) |  | A (A indicates >35 fold) | A (A indicates >2.5 fold) | B (B indicates 0.70-1.1 fold) | A (A indicates >2.5 fold) | B (B indicates 0.70-1.1 fold)
C[C@@H]1CN(C(C)(C)c2cc3c(c(C(F)(F)F)c2)CN(c2cccc(C4(c5nncn5C)CC5(CC5)C4)c2)C3=O)CCO1 [Compound 45, (R)-2-(3-(5-(4-methyl-4H-1,2,4-triazol-3-yl)spiro[2.3]hexan-5-yl)phenyl)-6-(2-(2-methylmorpholino)propan-2-yl)-4-(trifluoromethyl)isoindolin-1-one] | < 5 | B (B indicates 1.24-1.39 fold) | B (B indicates 20-35 fold) |  | B (B indicates 20-35 fold) | A (A indicates >2.5 fold) | A (A indicates >1.1 fold) | A (A indicates >2.5 fold) | A (A indicates >1.1 fold)
C[C@H]1CCCN(Cc2cc3c(c(C4CC4)n2)CN(c2cccc([C@]4(c5nncn5C)C[C@@H](C)C4)c2)C3=O)C1 [Compound 25, 4-cyclopropyl-2-(3-((1s,3R)-3-methyl-1-(4-methyl-4H-1,2,4-triazol-3-yl)cyclobutyl)phenyl)-6-(((S)-3-methylpiperidin-1-yl)methyl)-2,3-dihydro-1H-pyrrolo[3,4-c]pyridin-1-one] | 5 to 20 | B (B indicates 1.24-1.39 fold) | C (C indicates <20 fold) | B (B indicates 1.24-1.39 fold) | C (C indicates <20 fold) | B (B indicates 1.5-2.5 fold) | B (B indicates 0.70-1.1 fold) | B (B indicates 1.5-2.5 fold) | B (B indicates 0.70-1.1 fold)
